Laboratory results: PubChem BioAssay (NCI)
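96-well plates; 48 h exposure; 5 concentrations. Endpoints by linear interpolation between flanking doses. Not reached: highest tested concentration assigned. TGI is the concentration that stops growth completely.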

Tests used:
Assay in all cases: NCI tumour cell line growth inhibition, 48 h
DMS 114 small cell lung = system: DMS 114 small cell lung
DMS 273 small cell lung = system: DMS 273 small cell lung
HOP-18 NSCLC = system: HOP-18 NSCLC
KM20L2 colon = system: KM20L2 colon
M19-MEL melanoma = system: M19-MEL melanoma
SNB-78 CNS = system: SNB-78 CNS
XF 498 CNS = system: XF 498 CNS
BT-549 breast = system: BT-549 breast
DU-145 prostate = system: DU-145 prostate
HS 578T breast = system: HS 578T breast
MCF7 breast = system: MCF7 breast
NCI/ADR-RES ovarian = system: NCI/ADR-RES ovarian
T-47D breast = system: T-47D breast

Row | SMILES | TGI (DMS 114 small cell lung) [µM] | TGI (DMS 273 small cell lung) [µM] | TGI (HOP-18 NSCLC) [µM] | TGI (KM20L2 colon) [µM] | TGI (M19-MEL melanoma) [µM] | TGI (SNB-78 CNS) [µM] | TGI (XF 498 CNS) [µM] | TGI (BT-549 breast) [µM] | TGI (DU-145 prostate) [µM] | TGI (HS 578T breast) [µM] | TGI (MCF7 breast) [µM] | TGI (NCI/ADR-RES ovarian) [µM] | TGI (T-47D breast) [µM]
1 | O=C(CC(=O)c1ccccc1)C(=O)NC12CC3CC(CC(C3)C1)C2 | > 58.4 | > 70.2 | > 100 | > 100 | > 100 | > 100 | > 100 |  |  |  |  |  | 
2 | COc1cc2nncc(SCc3ccc(Cl)c(Cl)c3)c2cc1OC | > 100 | > 100 | > 100 | > 100 | > 100 | > 100 | 81.3 | > 100 | > 100 | > 100 | > 100 | > 100 | > 100
3 | CC1CC(=O)c2c(ccc3c2C(=O)c2cccc(O)c2C3=O)C1 (centres undefined) | 25.4 | 18.5 | 21.2 |  | 4.96 | 45.7 | 25.1 |  |  |  |  |  | 
4 | NS(=O)(=O)c1ccc(NC(=O)c2cccc3c(Nc4ccc(S(N)(=O)=O)cc4)c4ccccc4nc23)cc1 | > 100 | 5.15 | > 100 | > 100 | > 100 | > 100 | 74.6 |  |  |  |  |  | 
5 | O=C(NC1C=Nc2ccccc2NC1=O)c1ccccc1Cl (centres undefined) | > 100 | > 100 | > 100 | > 100 | > 100 | > 100 | > 100 |  |  |  |  |  | 
6 | O=S(=O)(N/N=C/c1ccc(Cl)cc1Cl)c1ccccc1 | 89.9 | > 100 | > 100 | > 100 | > 100 | > 100 | > 100 |  |  |  |  |  | 
7 | COC1(Cc2ccccc2)C(=O)c2ccccc2N1C(C)=O (centres undefined) | > 100 | > 100 | > 100 | > 100 | > 100 | > 100 | > 100 |  |  |  |  |  | 
8 | COc1cc2c(Cc3cc(OCc4ccccc4)ccc3N)nccc2c(OC)c1OC | > 10 | > 10 | > 10 | > 10 | > 10 | > 10 | > 10 |  |  |  |  |  | 
9 | COc1ccc(/C=N\O[Si](C)(C)C(C)(C)C)cc1O[Si](C)(C)C(C)(C)C | 35.6 | 34.1 | 31.1 | > 100 | 36.5 | 36.1 | 32.7 |  |  |  |  |  | 
10 | c1ccc2c(CN3CCC(C4CCN(Cc5cccc6ccccc56)CC4)CC3)cccc2c1 | 6.76 | 22.9 | > 100 | 10.3 | 20.7 | 73.7 | 10.4 | > 100 | > 100 | > 100 | > 73.7 | > 100 | 89.1
11 | O=C(O)C1CC2CC(=O)C1C2 (centres undefined) |  | > 100 | > 100 | > 100 | > 100 | > 100 | > 100 |  |  |  |  |  | 
12 | O=C1/C(=C\c2ccccc2)c2ccccc2N1/N=C\c1ccccc1 | > 100 | > 100 | > 100 | > 100 | > 100 | > 100 | > 100 |  |  |  |  |  | 
